Patent publication US20260262643A1, “HERBICIDAL BENZOXAZINES” (FMC CORPORATION, priority 2022, published 2026)

How the values were obtained:
barnyardgrass [1] = assay: Test C preemergence; assay type: in vivo, Echinochloa crusgalli
Summary of the method: (§1)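 Visual injury ratings on a 0–100 scale (100 = complete control) were made against untreated controls 10 days after treatment in the greenhouse. Compounds, formulated with surfactant in non-phytotoxic solvent, were sprayed on soil preemergence or onto one- to two-leaf plants 2–10 cm tall postemergence.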

blackgrass [2] = assay: Test C preemergence; assay type: in vivo, Alopecurus myosuroides
Summary of the method: as §1

corn [3] = assay: Test C preemergence; assay type: in vivo, Zea mays
Summary of the method: as §1

foxtail, giant [4] = assay: Test C preemergence; assay type: in vivo, Setaria faberi
Summary of the method: as §1

kochia [5] = assay: Test C preemergence; assay type: in vivo, Bassia scoparia
Summary of the method: as §1

oat, wild [6] = assay: Test C preemergence; assay type: in vivo, Avena fatua
Summary of the method: as §1

pigweed, palmer [7] = assay: Test C preemergence; assay type: in vivo, Amaranthus palmeri
Summary of the method: as §1

ragweed [8] = assay: Test C preemergence; assay type: in vivo, Ambrosia artemisiifolia
Summary of the method: as §1

ryegrass, Italian [9] = assay: Test C preemergence; assay type: in vivo, Lolium multiflorum
Summary of the method: as §1

soybean [10] = assay: Test C preemergence; assay type: in vivo, Glycine max
Summary of the method: as §1

wheat [11] = assay: Test C preemergence; assay type: in vivo, Triticum aestivum
Summary of the method: as §1

barnyardgrass [12] = assay: Test C postemergence; assay type: in vivo, Echinochloa crusgalli; details: 10 days, 0 to 100 scale (0 no effect, 100 complete control)
Summary of the method: as §1

blackgrass [13] = assay: Test C postemergence; assay type: in vivo, Alopecurus myosuroides; details: 10 days, 0 to 100 scale (0 no effect, 100 complete control)
Summary of the method: as §1

corn [14] = assay: Test C postemergence; assay type: in vivo, Zea mays; details: 10 days, 0 to 100 scale (0 no effect, 100 complete control)
Summary of the method: as §1

foxtail, giant [15] = assay: Test C postemergence; assay type: in vivo, Setaria faberi; details: 10 days, 0 to 100 scale (0 no effect, 100 complete control)
Summary of the method: as §1

kochia [16] = assay: Test C postemergence; assay type: in vivo, Bassia scoparia; details: 10 days, 0 to 100 scale (0 no effect, 100 complete control)
Summary of the method: as §1

oat, wild [17] = assay: Test C postemergence; assay type: in vivo, Avena fatua; details: 10 days, 0 to 100 scale (0 no effect, 100 complete control)
Summary of the method: as §1

pigweed, palmer [18] = assay: Test C postemergence; assay type: in vivo, Amaranthus palmeri; details: 10 days, 0 to 100 scale (0 no effect, 100 complete control)
Summary of the method: as §1

ragweed [19] = assay: Test C postemergence; assay type: in vivo, Ambrosia artemisiifolia; details: 10 days, 0 to 100 scale (0 no effect, 100 complete control)
Summary of the method: as §1

ryegrass, Italian [20] = assay: Test C postemergence; assay type: in vivo, Lolium multiflorum; details: 10 days, 0 to 100 scale (0 no effect, 100 complete control)
Summary of the method: as §1

soybean [21] = assay: Test C postemergence; assay type: in vivo, Glycine max; details: 10 days, 0 to 100 scale (0 no effect, 100 complete control)
Summary of the method: as §1

wheat [22] = assay: Test C postemergence; assay type: in vivo, Triticum aestivum; details: 10 days, 0 to 100 scale (0 no effect, 100 complete control)
Summary of the method: as §1

galium = assay: Test C postemergence; assay type: in vivo, Galium aparine; details: 10 days, 0 to 100 scale (0 no effect, 100 complete control)
Summary of the method: as §1

horseweed = assay: Test C postemergence; assay type: in vivo, Erigeron canadensis; details: 10 days, 0 to 100 scale (0 no effect, 100 complete control)
Summary of the method: as §1

barnyardgrass [23] = assay: Test D flooded paddy test; assay type: in vivo, Echinochloa crus-galli; details: 250 g ai/ha, applied to paddy water, visual rating after 13 to 14 days, scale 0 to 100 (0 no effect, 100 complete control)
Summary of the method: (§2)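 Post-flood water application at the 2-leaf stage; 3 cm flood depth kept constant; visual control rating 0–100 after 13–14 days greenhouse growth.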

ducksalad = assay: Test D flooded paddy test; assay type: in vivo, Heteranthera limosa; details: 250 g ai/ha, applied to paddy water, visual rating after 13 to 14 days, scale 0 to 100 (0 no effect, 100 complete control)
Summary of the method: as §2

rice = assay: Test D flooded paddy test; assay type: in vivo, Oryza sativa; details: 250 g ai/ha, applied to paddy water, visual rating after 13 to 14 days, scale 0 to 100 (0 no effect, 100 complete control)
Summary of the method: as §2

sedge, umbrella = assay: Test D flooded paddy test; assay type: in vivo, Cyperus difformis; details: 250 g ai/ha, applied to paddy water, visual rating after 13 to 14 days, scale 0 to 100 (0 no effect, 100 complete control)
Summary of the method: as §2

[24] = 500 g ai/ha, preemergence, 0 to 100 scale (0 no effect, 100 complete control)
[25] = Preemergence, 125 g ai/ha, 0 to 100 scale, 0 no effect, 100 complete control

C=C(C)c1cc(C(=O)N2C[C@H](C)Oc3c(Cl)cccc32)cc(-n2cncn2)c1 [Compound 317]
0: Plant response rating, Barnyardgrass (barnyardgrass [1]; [25]) | Plant response rating, Blackgrass (blackgrass [2]; [25]) | Plant response rating, Corn (corn [3]; [25]) | Kochia plant response rating (kochia [5]; [24]) | Plant response rating, Kochia (kochia [5]; [25]) | Plant response rating, Oat, Wild (oat, wild [6]; [25]) | Ragweed plant response rating (ragweed [8]; [24]) | Plant response rating, Ragweed (ragweed [8]; [25]) | Soybean plant response rating (soybean [10]; [24]) | Plant response rating, Soybean (soybean [10]; [25]) | Wheat plant response rating (wheat [11]; [24]) | Plant response rating, Wheat (wheat [11]; [25]) | Plant response rating, Blackgrass (blackgrass [13]; Postemergence, 125 g ai/ha) | Plant response rating, Oat, Wild (oat, wild [17]; Postemergence, 125 g ai/ha) | Plant response rating, Ragweed (ragweed [19]; 500 g ai/ha, postemergence) | Plant response rating, Ragweed (ragweed [19]; Postemergence, 125 g ai/ha) | Plant response rating, Ryegrass, Italian (ryegrass, Italian [20]; Postemergence, 125 g ai/ha) | Plant response rating, Horseweed (horseweed; 500 g ai/ha, postemergence) | Plant response rating, Horseweed (horseweed; Postemergence, 125 g ai/ha) | Plant response rating, Barnyardgrass (Flood) (barnyardgrass [23]) | Plant response rating, Ducksalad (Flood) (ducksalad) | Plant response rating, Rice (Flood) (rice) | Plant response rating, Sedge, Umbrella (Flood) (sedge, umbrella)
60: Ryegrass, Italian plant response rating (ryegrass, Italian [9]; [24]) | Plant response rating, Blackgrass (blackgrass [13]; 500 g ai/ha, postemergence)
90: Foxtail, Giant plant response rating (foxtail, giant [4]; [24]) | Pigweed, Palmer plant response rating (pigweed, palmer [7]; [24])
40: Oat, Wild plant response rating (oat, wild [6]; [24]) | Plant response rating, Ryegrass, Italian (ryegrass, Italian [9]; [25]) | Plant response rating, Corn (corn [14]; 500 g ai/ha, postemergence) | Plant response rating, Ryegrass, Italian (ryegrass, Italian [20]; 500 g ai/ha, postemergence)
20: Plant response rating, Pigweed, Palmer (pigweed, palmer [7]; [25]) | Plant response rating, Kochia (kochia [16]; Postemergence, 125 g ai/ha) | Plant response rating, Wheat (wheat [22]; 500 g ai/ha, postemergence)
100: Plant response rating, Soybean (soybean [21]; 500 g ai/ha, postemergence)
10: Corn plant response rating (corn [3]; [24]) | Plant response rating, Foxtail, Giant (foxtail, giant [4]; [25]) | Plant response rating, Barnyardgrass (barnyardgrass [12]; Postemergence, 125 g ai/ha) | Plant response rating, Corn (corn [14]; Postemergence, 125 g ai/ha) | Plant response rating, Foxtail, Giant (foxtail, giant [15]; Postemergence, 125 g ai/ha) | Plant response rating, Pigweed, Palmer (pigweed, palmer [18]; Postemergence, 125 g ai/ha) | Plant response rating, Wheat (wheat [22]; Postemergence, 125 g ai/ha)
70: Plant response rating, Barnyardgrass (barnyardgrass [12]; 500 g ai/ha, postemergence) | Plant response rating, Foxtail, Giant (foxtail, giant [15]; 500 g ai/ha, postemergence) | Plant response rating, Kochia (kochia [16]; 500 g ai/ha, postemergence) | Plant response rating, Soybean (soybean [21]; Postemergence, 125 g ai/ha) | Plant response rating, Galium (galium; 500 g ai/ha, postemergence)
30: Plant response rating, Oat, Wild (oat, wild [17]; 500 g ai/ha, postemergence)
50: Barnyardgrass plant response rating (barnyardgrass [1]; [24]) | Blackgrass plant response rating (blackgrass [2]; [24]) | Plant response rating, Pigweed, Palmer (pigweed, palmer [18]; 500 g ai/ha, postemergence) | Plant response rating, Galium (galium; Postemergence, 125 g ai/ha)
